Laboratory results taken from the supplement of paper PMC10307832.

Columns and labels:
Test in all cases: relative viability (nuclei count vs DMSO), 5 days (fraction); higher = more cells survive
[1] = compound: CC1(C)CNc2cc(NC(=O)c3cccnc3NCc3ccncc3)ccc21 [Motesanib] + Cc1nc(NC(=O)N2CCC[C@H]2C(N)=O)sc1-c1ccnc(C(C)(C)C(F)(F)F)c1 [Alpelisib] (partner 2 µM)
Method in brief: (§1)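 The day after seeding in 1536-well plates, lung cancer cell lines were treated by pin tool with a single drug, or with a fixed anchor-drug dose together with five library-drug doses (not always all listed) in √10 steps. After 5 days, a combined fix-and-stain solution (final 0.05% Triton X-100, 1% formaldehyde, 1 ug/ml Hoechst) was added. Nuclei counted on 4× images gave relative viability as treated counts over vehicle counts, reported as the median of duplicate plates.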

[2] = compound: C[C@@]1(C(=O)Nc2ccc(F)nc2)CCCN1c1nc(Nc2cc(C3CC3)n[nH]2)c2cccn2n1 + Nc1nc2[nH]cc(CCc3ccc(C(=O)N[C@@H](CCC(=O)O)C(=O)O)cc3)c2c(=O)[nH]1 [Pemetrexed] (partner 0.2 µM)
Method in brief: as §1

[3] = compound: CC1(C)CNc2cc(NC(=O)c3cccnc3NCc3ccncc3)ccc21 [Motesanib] + CC(=O)c1c(C)c2cnc(Nc3ccc(N4CCNCC4)cn3)nc2n(C2CCCC2)c1=O [Palbociclib] (partner 0.5 µM)
Method in brief: as §1

[4] = compound: C[C@@]1(C(=O)Nc2ccc(F)nc2)CCCN1c1nc(Nc2cc(C3CC3)n[nH]2)c2cccn2n1 + CS(=O)(=O)N1CCN(Cc2cc3nc(-c4cccc5[nH]ncc45)nc(N4CCOCC4)c3s2)CC1 [Pictilisib] (partner 1 µM)
Method in brief: as §1

| Cell Line | relative viability ([1]; first compound 0.01 µM) | relative viability ([1]; first compound 0.03162 µM) | relative viability ([1]; first compound 0.1 µM) | relative viability ([1]; first compound 0.3162 µM) | relative viability ([1]; first compound 1 µM) | relative viability ([2]; first compound 0.04 µM) | relative viability ([2]; first compound 0.1265 µM) | relative viability ([2]; first compound 0.4 µM) | relative viability ([2]; first compound 1.265 µM) | relative viability ([3]; first compound 0.01 µM) | relative viability ([3]; first compound 0.03162 µM) | relative viability ([3]; first compound 0.1 µM) | relative viability ([3]; first compound 0.3162 µM) | relative viability ([3]; first compound 1 µM) | relative viability ([4]; first compound 0.04 µM) | relative viability ([4]; first compound 0.1265 µM) | relative viability ([4]; first compound 0.4 µM) | relative viability ([4]; first compound 1.265 µM) |
| --- | --- | --- | --- | --- | --- | --- | --- | --- | --- | --- | --- | --- | --- | --- | --- | --- | --- | --- |
| NCI-H1666 | 0.799 | 0.977 | 0.949 | 1.02 | 1.16 | 0.797 | 0.735 | 0.714 | 0.683 | 0.649 | 0.577 | 0.679 | 0.751 | 0.63 | 0.364 | 0.378 | 0.447 | 0.38 |
| NCI-H1651 | 0.987 | 0.909 | 0.823 | 0.883 | 1.06 | 0.62 | 0.508 | 0.517 | 0.447 | 0.528 | 0.523 | 0.538 | 0.508 | 0.513 | 0.484 | 0.447 | 0.39 | 0.538 |
| NCI-H1755 | 0.879 | 0.905 | 1.02 | 1.03 | 0.909 | 0.444 | 0.408 | 0.39 | 0.377 | 0.459 | 0.46 | 0.487 | 0.477 | 0.48 | 0.481 | 0.241 | 0.307 | 0.381 |
| NCI-H661 | 0.356 | 0.608 | 0.683 | 0.641 | 0.882 | 0.918 | 0.909 | 0.796 | 0.899 | 0.43 | 0.414 | 0.43 | 0.435 | 0.402 | 0.432 | 0.355 | 0.408 |  |
| HARA | 0.808 | 0.852 | 0.815 | 0.943 | 0.831 | 0.222 | 0.241 | 0.227 | 0.228 | 0.281 | 0.211 | 0.282 | 0.253 | 0.315 | 0.366 | 0.208 | 0.215 | 0.294 |
| NCI-H23 | 0.798 | 0.481 |  | 0.639 | 0.603 | 0.506 | 0.437 | 0.399 | 0.312 | 0.482 | 0.491 | 0.456 | 0.604 | 0.467 | 0.583 | 0.371 | 0.396 | 0.342 |
| LCLC-97TM1 | 0.238 | 0.241 | 0.283 | 0.296 | 0.263 | 0.137 | 0.155 | 0.149 | 0.143 | 0.188 | 0.216 | 0.229 | 0.32 | 0.261 | 0.139 | 0.151 | 0.159 | 0.136 |
| EPLC-272H | 0.908 | 1.12 | 0.898 | 0.897 | 0.914 | 0.358 | 0.291 | 0.349 | 0.23 | 0.284 | 0.3 | 0.344 | 0.36 | 0.381 | 0.251 | 0.18 | 0.168 | 0.174 |
| NCI-H1915 | 1.02 | 1.02 | 1.03 | 1.02 | 1.06 | 0.52 | 0.46 | 0.48 | 0.529 | 0.541 | 0.522 | 0.545 | 0.508 | 0.575 | 0.948 | 1.04 | 0.894 | 0.863 |
